{"source": "patent US20230241083A1", "about": "“FORMULATION COMPRISING CANNABINOIDS” (CANNOVEX BV, priority 2020, published 2023)", "experiment": "Stability study of THC in a receiver solution", "format": "physicochemical", "details": "receiver solution EtOH:H2O (50/50 vol); 3, 6, 8, 24, 30, 48 hours", "from_the_text": "FIG. 2: Stability study of THC in a receiver solution."}
{"smiles": "CCCCCc1cc(O)c2c(c1)OC(C)(C)[C@@H]1CCC(C)=C[C@@H]21", "note": "[THC, Delta-9-tetrahydrocannabinol]", "values": [{"measurement": "THC concentration over time in receiver solution (stability)", "value": "does not decay over time"}]}
